Test results from the NIST ThermoML archive (doi:10.1021/je800600q).
Numbers after ± are expanded uncertainties.

Details: Crystal; DTA

Normal melting temperature: 91.02 ± 0.5 °C
Compound: CCc1occc(=O)c1O [2-ethyl-3-hydroxy-4H-pyran-4-one]
